{"source": "patent US12016831B2", "about": "“Polidocanol for use as immunomodulating agent” (priority 2018, dated 2024)", "tested_on": "patients with C2 CEAP Class and bearing lower limbs varices", "experiment": "Venous refilling time measurement via photoplethysmography (FPG)", "type": "in vivo, human", "conditions": "for venous refilling time (VRT): Diluted Polidocanol Group", "description": "The results were confirmed by photoplethysmography in a limited number of patients (n=20) wherein the measurement of venous refilling registered and examined, compared to the beginning of the treatment (after at least 4 sessions), has evidenced an increase of the peripheral venous refilling time in 17 out of 20 cases, indicating a plausible increase of venous resistance, i.e. a reduction of the peripheral reticulo-capillary bed or anyway of the superficial venous system. • 9. Improvement of the so-called “cellulitis”. The results were as follows:\n40 patients with C2 CEAP Class and bearing lower limbs varices were examined via photoplethysmography exam with a Photoplethysmograph with Light Reflection Rheography/1-Channel (Vasoquant 1000 D-Ppg), they were divided into two homogeneous groups wherein the venous refilling time was measured before and after the hemodynamic therapy.\nIn the Diluted Polidocanol Group the hemodynamic therapy was followed after 30 days by sclerosing treatment with diluted polidocanol, prepared as described in example 1. In the Basal Group, after hemodynamic therapy no further treatment was carried out.\nIn the Basal Group of 20 patients, measurements of the refilling time of the superficial veins (SV) via photoplethysmography (FPG) exam were carried out at time zero, at time 1 (1 month) after hemodynamic (surgical) therapy on the varices, and at time 6 (6 months) without any further treatment.\nIn the Diluted Polidocanol Group of 20 patients, measurements of the refilling time of the SV via FPG were carried out at time zero, at 1 month after hemodynamic (surgical) therapy on the varices, and at time 6 (6 months) after 3-4 sessions of sclerotherapy with the method of the invention."}
{"substance": "Polidocanol [diluted polidocanol]", "values": [{"measurement": "patients with an improved index according to FPG exam", "setting": "6 months, after 3-4 sessions, 18 out of 20", "value": 90, "unit": "%"}, {"measurement": "venous refilling time (VRT)", "setting": "1 month, basal 24.3±6.78, p<0.05", "value": "35.3 ± 4.14", "unit": "s"}, {"measurement": "venous refilling time (VRT)", "setting": "6 months, after 3-4 sessions, p<0.05 vs 1 month", "value": "37.6 ± 4.13", "unit": "s"}, {"measurement": "refilling time at T6, Diluted Polidocanol Group vs basal group", "setting": "T6 (6 months), basal group 35, p<0.001 Chi-squared test", "value": 38, "unit": "s"}, {"measurement": "cases with increase of the peripheral venous refilling time", "setting": "n=20, after at least 4 sessions, compared to the beginning of the treatment", "value": "17 out of 20"}]}
